According to ChEMBL document CHEMBL6087460, “Generating a Peptide Library Using the Repeats of Amino Acid Scaffolds Created by Sliding the Framework of a 7-mer Human Chemerin Segment and Discovery of Potent Antibacterial and Antimycobacterial Peptides” (J Med Chem, 2025):
In brackets after ≈: the same amount, converted by molar mass. Activity calls are given as the source filed them. The rule behind the calls is not given here.

How the values were obtained:
[1] = test system: Mycobacterium tuberculosis variant bovis; experiment: Antitubercular activity against Mycobacterium bovis BCG incubated for 5 days by rezasurin dye based assay; type: functional; details: 120 h, time 5 day
[2] = test system: Mycobacterium tuberculosis variant bovis; experiment: Antitubercular activity against Mycobacterium bovis BCG infected in BALB/c mouse assessed as bacterial survival in lungs at 5 mg/kg, iv administered once a day for 2 weeks measured on day 15 relative to control; type: functional; details: 336 h
[3] = test system: Mycobacterium tuberculosis variant bovis; experiment: Antitubercular activity against Mycobacterium bovis BCG infected in BALB/c mouse assessed as decrease in bacterial count in spleen at 2.5 to 5 mg/kg, iv administered once a day for 2 weeks; type: functional, organism-based; details: dose 2.5-5 mg/kg
[4] = test system: Mycobacterium tuberculosis variant bovis; experiment: Antitubercular activity against Mycobacterium bovis BCG infected in BALB/c mouse assessed as bacterial survival in spleen at 5 mg/kg, iv administered once a day for 2 weeks measured on day 15 relative to control; type: functional; details: 336 h
[5] = test system: Mycobacterium tuberculosis variant bovis; experiment: Antimycobacterial activity against Mycobacterium bovis BCG infected in human THP-1 cells derived macrophages assessed as reduction in intracellular bacterial survival at 10 ug/ml incubated for 24 hrs relative to control; type: functional; details: dose 10 µg/ml
[6] = test system: Mycobacterium tuberculosis variant bovis; experiment: Antitubercular activity against Mycobacterium bovis BCG infected in BALB/c mouse assessed as decrease in bacterial count in lungs at 2.5 to 5 mg/kg, iv administered once a day for 2 weeks; type: functional, organism-based; details: dose 2.5-5 mg/kg
[7] = test system: Mycobacterium tuberculosis variant bovis; experiment: Antimycobacterial activity against Mycobacterium bovis BCG infected in human THP-1 cells derived macrophages assessed as reduction in intracellular bacterial survival at 20 ug/ml incubated for 24 hrs relative to control; type: functional; details: dose 20 µg/ml

H-LGRLLGRLLGRL-OH
MIC [1]: 5 µM

H-RLVRLVRLVRLVRLV-OH
MIC [1]: > 10 µM

H-KVLGKVLGKVLGKVLG-OH
MIC [1]: > 10 µM

H-RLRLRLRLRL-OH
MIC [1]: 10 µM

H-KVLKVLKVLKVL-OH
MIC [1]: > 10 µM

H-GRLVGRLVGRLVGRLV-OH
survival at 5 mg/kg [2]: ~10%
Activity [3]: Active
survival at 5 mg/kg [4]: ~10%
Activity [5]: 35%
Activity [6]: Active
MIC [1]: 2.5 µM
Activity [7]: 20%

H-VLGRVLGRVLGRVLGR-OH
survival at 5 mg/kg [2]: ~10%
Activity [3]: Active
survival at 5 mg/kg [4]: ~10%
Activity [5]: 25%
Activity [6]: Active
MIC [1]: 2.5 µM
Activity [7]: 10%

CO[C@H]1/C=C/O[C@@]2(C)Oc3c(C)c(O)c4c(O)c(c(/C=N/N5CCN(C)CC5)c(O)c4c3C2=O)NC(=O)/C(C)=C\C=C\[C@H](C)[C@H](O)[C@@H](C)[C@@H](O)[C@@H](C)[C@H](OC(C)=O)[C@@H]1C [RIFAMPIN]
MIC [1]: 0.25 µM (≈ 0.206 µg/mL)

H-RLVRLVRLVRLV-OH
MIC [1]: 5 µM

H-GRLGRLGRLGRLGRL-OH
MIC [1]: 5 µM
